Key:
Test in all cases: relative viability (nuclei count vs DMSO), 5 days (fraction); higher = more cells survive
Erlotinib + Trametinib = compound: C#Cc1cccc(Nc2ncnc3cc(OCCOC)c(OCCOC)cc23)c1 [Erlotinib] + CC(=O)Nc1cccc(-n2c(=O)n(C3CC3)c(=O)c3c(Nc4ccc(I)cc4F)n(C)c(=O)c(C)c32)c1 [Trametinib] (partner 0.02 µM)
Summary of the method: (§1)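 Relative viability was taken as the ratio of nuclei in treated wells to nuclei in vehicle wells. Lung cancer cell lines in 1536-well plates received compounds by pin tool one day after seeding, either one drug alone or a fixed anchor-drug dose plus five library-drug doses (not always all listed) in √10 steps. Nuclei were counted on 4× images after 5 days of treatment, and values are medians of duplicate plates.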

Erlotinib + AZD7762 = compound: C#Cc1cccc(Nc2ncnc3cc(OCCOC)c(OCCOC)cc23)c1 [Erlotinib] + NC(=O)Nc1cc(-c2cccc(F)c2)sc1C(=O)N[C@H]1CCCNC1 [AZD7762] (partner 0.2 µM)
Summary of the method: as §1

AT9283 + Bortezomib = compound: O=C(Nc1c[nH]nc1-c1nc2ccc(CN3CCOCC3)cc2[nH]1)NC1CC1 [AT9283] + CC(C)C[C@H](NC(=O)[C@H](Cc1ccccc1)NC(=O)c1cnccn1)B(O)O [Bortezomib] (partner 0.002 µM)
Summary of the method: as §1

AT9283 + Pictilisib = compound: O=C(Nc1c[nH]nc1-c1nc2ccc(CN3CCOCC3)cc2[nH]1)NC1CC1 [AT9283] + CS(=O)(=O)N1CCN(Cc2cc3nc(-c4cccc5[nH]ncc45)nc(N4CCOCC4)c3s2)CC1 [Pictilisib] (partner 1 µM)
Summary of the method: as §1

AT9283 + Tozasertib = compound: O=C(Nc1c[nH]nc1-c1nc2ccc(CN3CCOCC3)cc2[nH]1)NC1CC1 [AT9283] + Cc1cc(Nc2cc(N3CCN(C)CC3)nc(Sc3ccc(NC(=O)C4CC4)cc3)n2)n[nH]1 [Tozasertib] (partner 0.1 µM)
Summary of the method: as §1

Cell Line | relative viability (Erlotinib + Trametinib; first compound 0.02 µM) | relative viability (Erlotinib + Trametinib; first compound 0.2 µM) | relative viability (Erlotinib + Trametinib; first compound 0.6325 µM) | relative viability (Erlotinib + Trametinib; first compound 2 µM) | relative viability (Erlotinib + AZD7762; first compound 0.02 µM) | relative viability (Erlotinib + AZD7762; first compound 0.2 µM) | relative viability (Erlotinib + AZD7762; first compound 0.6325 µM) | relative viability (Erlotinib + AZD7762; first compound 2 µM) | relative viability (AT9283 + Bortezomib; first compound 0.003 µM) | relative viability (AT9283 + Bortezomib; first compound 0.03 µM) | relative viability (AT9283 + Bortezomib; first compound 0.09487 µM) | relative viability (AT9283 + Bortezomib; first compound 0.3 µM) | relative viability (AT9283 + Pictilisib; first compound 0.003 µM) | relative viability (AT9283 + Pictilisib; first compound 0.03 µM) | relative viability (AT9283 + Pictilisib; first compound 0.09487 µM) | relative viability (AT9283 + Pictilisib; first compound 0.3 µM) | relative viability (AT9283 + Tozasertib; first compound 0.003 µM) | relative viability (AT9283 + Tozasertib; first compound 0.03 µM) | relative viability (AT9283 + Tozasertib; first compound 0.09487 µM) | relative viability (AT9283 + Tozasertib; first compound 0.3 µM)
NCI-H322M | 0.472 | 0.461 | 0.462 | 0.445 | 0.464 | 0.481 | 0.371 | 0.395 | 1.25 | 1.34 | 0.861 | 0.407 | 0.498 | 0.413 | 0.294 | 0.298 | 0.499 | 0.511 | 0.395 | 0.443
NCI-H1734 | 0.74 | 0.718 | 0.619 | 0.634 | 0.579 | 0.513 | 0.607 | 0.507 | 0.904 | 0.349 | 0.296 | 0.223 | 0.406 | 0.271 | 0.299 | 0.221 | 0.255 | 0.249 | 0.233 | 0.186
HCC-366 | 0.335 | 0.294 | 0.277 | 0.215 | 0.346 | 0.258 | 0.191 | 0.0996 | 1.02 | 0.921 | 0.129 | 0.0684 | 0.145 | 0.152 | 0.0339 | 0.0503 | 0.127 | 0.438 | 0.0615 | 0.0586
NCI-H1437 | 0.534 | 0.322 | 0.373 | 0.371 | 1.01 |  |  | 0.956 | 0.496 | 0.398 | 0.175 | 0.164 | 0.439 | 0.468 | 0.12 | 0.126 | 0.426 | 0.321 | 0.215 | 0.238
NCI-H1651 | 0.881 | 0.814 | 0.877 | 0.84 | 0.365 | 0.428 | 0.406 | 0.304 | 0.914 | 0.897 | 0.902 | 0.618 | 0.59 | 0.572 | 0.24 | 0.255 | 0.699 | 0.638 | 0.506 | 0.316
NCI-H727 | 0.392 | 0.387 | 0.351 | 0.379 | 0.455 | 0.488 | 0.437 | 0.463 | 0.824 | 0.508 | 0.351 | 0.306 | 0.379 | 0.395 | 0.225 | 0.167 | 0.589 | 0.567 | 0.457 | 0.444
